Columns and labels:
[1] = Bioavailability test in vivo in cynomolgus monkey (pharmacokinetics, IV and PO); conditions: cynomolgus monkeys
Method: Twelve male Non-Naïve cynomolgus monkeys were purchased from GuangxiGuidong Primate Development Experiment Co. LTD.
(§1) 54.31 mg of I-8-1 was accurately weighed, and 1.08 mL of DMSO was added, then the mixture was vortexed for 1 min, sonicated for 15 min, and then diluted to 36 mL according to the ratio of 10% HP-β-cyclodextrin (prepared by normal saline): PEG=8:2, vortexed for 1 min. A colorless clarified administration solution (the pH value was about 7) at a concentration of 1.5 mg/mL was prepared for intravenous administration to Group 1.
300.9 mg of I-8-1 was accurately weighed, and 75 mL of 0.5% CMC-Na was added, the mixture was fully ground and stirred for 5 min. A white suspension (the pH value was about 7) at a concentration of 4 mg/mL was prepared for oral administration to Group 2.
as §1, with “54.05 mg” for “54.31 mg”, “of AZD1775” for “of I-8-1”, “then he” for “then the”, “of 10%-D-cyclodextrin” for “of 10% HP-β-cyclodextrin”, “A yellow” for “A colorless”, “Group 3.” for “Group 1.”
300.7 mg of AZD1775 was accurately weighed, and 75 mL of 0.5% CMC-Na was added, the mixture was fully ground and stirred for 5 min. A yellow suspension (the pH value was about 7) at a concentration of 4 mg/mL was prepared for oral administration to Group 4.
Before administration, all animals were fasted overnight (approximately 12 hours) and fed as required and administered according to the table below.
Intravenous group: before administration (0 h), 0.033 h, 0.083 h, 0.25 h, 0.5 h, 1 h, 1.5 h, 2 h, 4 h, 6 h, 8 h, 12 h, 24 h after administration.
Oral group: before administration (0 h), 0.083 h, 0.25 h, 0.5 h, […], 2 h, 4 h, 6 h, 8 h, 12 h, 24 h after administration.
Blood samples were collected by puncture through lower limb vein or other suitable blood vessels at 1 mL/time point (3 mL of blood samples were collected from each animal before administration), anticoagulated with heparin sodium, and placed on ice after collection. Plasma was separated at 2200 g/min, 10 min, 2-8° C., plasma samples were stored in a −80° C. refrigerator before being transferred to the client. Plasma samples are stored in dry ice and transferred to the client. The final treatment of the sample will be recorded in the experimental record.
300 μL of acetonitrile was added to 50 μL of plasma samples containing internal standard (Propranolol, 25 ng/mL) to precipitate protein, vortexed for 10 min, centrifuged at 6000 g for 10 min, after I-8-1&AZD1775 intravenous injection group was diluted 10 times with internal standard acetonitrile (Propranolol, 25 ng/mL) at the time point before 1 hour, the remaining supernatant was not diluted, centrifuged again at 6000 g at 4° C. for 10 min, and the supernatant was taken and injected into a 96 well plate.
(§2) Dose; peak concentration: Cmax; peak time: Tmax; area under the drug-time curve from AUClast 0 to time t; half-life: T1/2; mean retention time: MRT; clearance: Cl; apparent distribution volume: Vz; steady-state distributed volume: Vss; absolute bioavailability: F.
The pharmacokinetic parameters of the compound in cynomolgus monkeys after intravenous injection or intragastric administration were shown in Table 6 below.

[2] = Bioavailability test in vivo in mice (pharmacokinetics, iv and intragastric); design: species or system ICR mice
Method: 404.6 μL of DMSO was added to the compound powder of the present disclosure until the compound was completely dissolved, and 50 mg/mL mother liquor was prepared in a clarified state.
The compound of the present disclosure: 24 μL of mother liquor was accurately measured, diluted to 4 mL according to the ratio of 0.9% normal saline:PEG400=8:2, the preparation concentration was 0.3 mg/mL, the solution was in a clarified state, and it was used as intravenous administration solution. In addition, 80 μL mother liquor was accurately measured, and 0.5% CMC-Na was added to 8 mL to grind it into a uniform suspension with a concentration of 0.5 mg/mL, which was used as intragastric administration solution.
(§3) Intravenous group: 24 ICR mice, 20±2 g, were given the intravenous administration solution of the compound of the present disclosure by intravenous injection, with the volume of 10 mL/kg, with the dose of 3 mg/kg, the blood was taken from the fundus venous plexus of mice, 2, 5, 15, 30, 60, 90, 120, 240, 360, 480, 600 and 1440 minutes before and after administration.
as §3, with “Intragastric group:” for “Intravenous group:”, “the intragastric” for “the intravenous”, “by intragastric” for “by intravenous”, “of 20” for “of 10”, “of 10” for “of 3”, “mice,” for “mice, 2,”
Blood sample was centrifuged at 8000 rpm for 5 min, and the plasma was stored in a centrifuge tube at −20° C. for later use.
300 μL of acetonitrile containing internal standard (Propranolol, 25 ng/mL) was added to 50 μL of plasma samples to precipitate protein, vortexed for 10 min, 6000 g, 4° C., centrifuged for 10 min; the supernatant before intravenous injection for 1 hour was taken, diluted 10 times with acetonitrile containing internal standard, the rest supernatant was kept undiluted, centrifuged for 10 min again at 6000 g, 4° C., and the supernatant was taken and then injected into a 96-well plate.
as §2
The pharmacokinetic parameters of the compound in mice after intravenous injection or intragastric administration were shown in Table 4 and Table 5 below.

[3] = male, cynomolgus monkey, plasma, iv, 3 mg/kg
[4] = male, cynomolgus monkey, plasma, po, 20 mg/kg, fasted
[5] = ICR, mouse, plasma, iv, 3 mg/kg
[6] = ICR, mouse, plasma, po (intragastric), 10 mg/kg

C=CCn1c(=O)c2cnc(Nc3ccc(C4CCC(N5CCC5)CC4)cc3)nc2n1-c1cccc(C(C)(C)O)n1 (single isomer, unassigned) [Compound I-8-1]
AUCextra ([1]; iv, 3 mg/kg): 16.11 ± 9.34 (h)*(ng/mL)
AUClast ([1]; iv, 3 mg/kg): 957.6 ± 126.3 (h)*(ng/mL)
AUCtot ([1]; iv, 3 mg/kg): 973.8 ± 131.4 (h)*(ng/mL)
thalf ([1]; iv, 3 mg/kg): 2.05 ± 1.24 h
AUCextra ([1]; po, 20 mg/kg, fasted): 187.03 ± 166.00 (h)*(ng/mL)
AUClast ([1]; po, 20 mg/kg, fasted): 6548 ± 3043 (h)*(ng/mL)
AUCtot ([1]; po, 20 mg/kg, fasted): 6735 ± 3201 (h)*(ng/mL)
thalf ([1]; po, 20 mg/kg, fasted): 3.71 ± 0.72 h
Vd ([1]; male, cynomolgus monkey, plasma, iv, 3 mg/kg, iv, 3 mg/kg, read-out: Vss): 9.67 ± 1.32 L/kg
Vd ([1]; male, cynomolgus monkey, plasma, iv, 3 mg/kg, iv, 3 mg/kg, read-out: Vz): 8.78 ± 4.22 L/kg
Cmax [1, 3]: 838 ± 190 ng/mL
MRT [1, 3]: 3.17 ± 0.82 h
Tmax [1, 3]: 0.03 h
clearance [1, 3]: 52 mL/min/kg
bioavailability ([1]; male, cynomolgus monkey, plasma, po 20 mg/kg vs iv 3 mg/kg, read-out: BA (absolute bioavailability)): 103%
Cmax [1, 4]: 721 ± 260 ng/mL
MRT [1, 4]: 7.91 ± 2 h
Tmax [1, 4]: 4.5 ± 2.6 h
Cmax [2, 5]: 644 ± 132 ng/mL
MRT [2, 5]: 1.11 ± 0.08 h
Tmax [2, 5]: 1.8 min
clearance [2, 5]: 155 mL/min/kg
half-life [2, 5]: 73.2 ± 6 min
Vd ([2]; ICR, mouse, plasma, iv, 3 mg/kg, iv, 3 mg/kg, read-out: Vss): 10.3 ± 0.86 L/kg
Vd ([2]; ICR, mouse, plasma, iv, 3 mg/kg, iv, 3 mg/kg, read-out: Vz): 16.3 ± 2.48 L/kg
bioavailability ([2]; ICR, mouse, plasma, po 10 mg/kg vs iv 3 mg/kg, read-out: F (absolute bioavailability)): 60.3%
Cmax [2, 6]: 58.1 ± 7.09 ng/mL
MRT [2, 6]: 3.47 ± 1.22 h
Tmax [2, 6]: 100 ± 17.4 min
half-life [2, 6]: 94.2 ± 23.4 min
AUClast ([2]; iv, 3 mg/kg): 317.5 ± 34.41 (h) (ng/mL)
AUClast ([2]; po (intragastric), 10 mg/kg): 637.9 ± 302.3 (h) (ng/mL)

Source: patent US12612408B2, “Pyrazolone-fused pyrimidine compound, preparation method for same and applications thereof” (SHANGHAI PHARMACEUTICALS HOLDING CO., LTD., priority 2019, dated 2026)
